For experiment [1], the system named is E. coli ML35p outer membrane. The experiment can be described thus: NPN assay, outer membrane perturbation. It is filed as cell-based, Escherichia coli. Particulars: 25 μM peptide, 25 μM PMB = 100%.
For another experiment, the system named is E. coli ATCC 25922. The experiment can be described thus: Antimicrobial efficacy (resazurin virtual colony count). The note with it: for increase of EC50 in presence of albumin relative to EC50 in DPBS: DPBS + 4% (w/v) bovine serum albumin versus DPBS; for decrease of efficacy in DPBS relative to 10 mM Na-PO4: DPBS versus 10 mM Na-PO4; for decrease of efficacy under physiologically relevant ionic conditions: PBS versus low ionic conditions. Format: cell-based, Escherichia coli.

Where [2] appears, read: DPBS (with Ca++ and Mg++), pH 7.4.
Where [3] appears, read: PBS (high / physiologically relevant ionic strength), pH 7.4.

Entries after “also recorded” stand apart in the source; their conditions may differ.

Turning to KRAKKFFKKLK (SEQ ID NO: 4) [ATRA1-A], the “membrane perturbation with respect to PMB” value (“membrane perturbation” below) in experiment [1] (DPBS) was “less effective at perturbing the outer membrane than ATRA-1”. Also, the entries for the “antimicrobial efficacy, in words” value with E. coli ATCC 25922 (setting [2]) and in the experiment on E. coli ATCC 25922 (setting [3]) were “lose activity in DPBS” and “retained some antimicrobial activity”, respectively.
With KRAKKFFKRLK (SEQ ID NO: 6) [ATRA1-AR], the “membrane perturbation” value in experiment [1] (PBS) is on record as “decreased slightly”. Besides, the “antimicrobial efficacy, in words” value with E. coli ATCC 25922 (setting [3]) is “completely ineffective”.
Turning to “KRFKKFFKKLK (SEQ ID NO: 2) [ATRA1, first 11 residues of NA-CATH]”, the results for the “membrane perturbation” value in experiment [1] (DPBS) and in experiment [1] (PBS) were “less than 50%” and “perturbed comparable to PMB”, respectively. The “antimicrobial efficacy, in words” value in the experiment with E. coli ATCC 25922 (setting [2]) was “lose activity in DPBS; also recorded: lost antimicrobial property”; with E. coli ATCC 25922 (setting [3]), “effective in PBS”.
Turning to “KRFKKFFKKLKGGVIGVTFPF (SEQ ID NO: 38) [ATRA1-HYD, ATRA1 with hydrophobic tail of NA-CATH joined at the C-terminus by a short -GG- segment]”, the “membrane perturbation” value in experiment [1] (DPBS) is listed as around 75%. In the experiment with E. coli ATCC 25922, the “increase of EC50 in presence of albumin relative to EC50 in DPBS” value is listed as “approximately 2 fold” and the “decrease of efficacy in DPBS relative to 10 mM Na-PO4” value is listed as around 10 fold.
For the sequence “KRFKKFFKKLKNSVKKRAKKFFKKPK (SEQ ID NO: 53) [NA-CATH26, first 26 residues of NA-CATH]”, the “membrane perturbation” value in experiment [1] (10 mM phosphate buffer) is “higher degree of membrane perturbations than PMB”. The “membrane perturbation” value in experiment [1] (PBS) is “perturbed outer membrane greater than PMB”. Also, in the experiment on E. coli ATCC 25922, the “decrease of efficacy in DPBS relative to 10 mM Na-PO4” value was around 14 fold and the “decrease of efficacy under physiologically relevant ionic conditions” value is given as “approximately 2 fold”.
As to KRWKKWWKKWK (SEQ ID NO: 14) [ATRA1-W4], in experiment [1] (DPBS), the “membrane perturbation” value is given as “higher OM perturbation than ATRA1”. For the same sequence, in the experiment with E. coli ATCC 25922 (setting [2]), the “antimicrobial efficacy, in words” value was “most effective in DPBS”.
On to RRFKRFFKRLK (SEQ ID NO: 9) [ATRA1-R3], for which, in experiment [1] (DPBS), the “membrane perturbation” value is given as “higher OM perturbation than ATRA1”. Moreover, the “antimicrobial efficacy, in words” value in the experiment on E. coli ATCC 25922 (setting [2]) is reported as “significantly reduced in DPBS relative to its activity in PBS”.
As for RRFRRFFRRLR (SEQ ID NO: 10) [ATRA1-R6], the “membrane perturbation” value is on record as “higher OM perturbation than ATRA1” in experiment [1] (DPBS) and “decreased slightly” in experiment [1] (PBS). Also, the “antimicrobial efficacy, in words” value in the experiment on E. coli ATCC 25922 (setting [2]) was “highly effective in DPBS”.
As for “RRWKRFFKRWK (SEQ ID NO: 15) [ATRA1-R3W2]”, the “membrane perturbation” value is reported as “higher OM perturbation than ATRA1” in experiment [1] (DPBS); around 65% in experiment [1] (DPBS, listed as ATRA-R3W2); “perturbed comparable to PMB” in experiment [1] (PBS). The “antimicrobial efficacy, in words” value in the experiment on E. coli ATCC 25922 (setting [2]) is “more effective than either of its parent peptides”; in the experiment with E. coli ATCC 25922 (serum), “no antimicrobial property”. Further, in the experiment with E. coli ATCC 25922, the “increase of EC50 in presence of albumin relative to EC50 in DPBS” value is given as around 5 fold. In the experiment with E. coli ATCC 25922, the “decrease of efficacy in DPBS relative to 10 mM Na-PO4” value is recorded as “approximately 3 fold”.
For “RRWKRFFKRWKGGVIGVTFPF (SEQ ID NO: 50) [ATRA1-R3W2-HYD, ATRA1-R3W2 with hydrophobic tail of NA-CATH joined by -GG-]”, the entries for the “membrane perturbation” value in experiment [1] (10 mM phosphate buffer), in experiment [1] (DPBS) and in experiment [1] (PBS) were 75%, around 100% and “comparable to PMB”, respectively. For the same sequence, the “increase of EC50 in presence of albumin relative to EC50 in DPBS” value in the experiment on E. coli ATCC 25922 is on record as “did not demonstrate significant changes in EC50 values”. The “decrease of efficacy under physiologically relevant ionic conditions” value with E. coli ATCC 25922 is around 5 fold.
